{"source": "paper PMC10714400", "about": "“Antimicrobial Peptide–Peptoid Hybrids with and without Membrane Disruption” (ACS Infectious Diseases, 2023)", "key": {"B. cenocepacia": {"system": "B. cenocepacia", "details": "pH 7.4", "procedure,_shortened": "(§1)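 MIC taken visually after MTT staining (20–30 min, RT) as the lowest compound concentration preventing growth, i.e. yellow wells. Inoculum ~5 × 10^5 CFU/well in MH broth, 37 °C static for ca. 18 h; polymyxin B control started at 16 μg/mL.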"}, "S. aureus Newman": {"system": "S. aureus Newman", "details": "Newman", "procedure,_shortened": "as §1"}, "P. aeruginosa PA14": {"system": "P. aeruginosa PA14", "procedure,_shortened": "as §1"}, "S. epidermis": {"system": "S. epidermis", "procedure,_shortened": "as §1"}, "S. maltophilia": {"system": "S. maltophilia", "procedure,_shortened": "as §1"}, "[1]": {"system": "human red blood cells (hRBC)", "experiment": "Minimum hemolytic concentration (MHC)", "format": "cell-based", "text": "We also measured minimal hemolysis concentrations (MHC) on human red blood cells by serial 2-fold dilution as an indication of toxicity against eukaryotic cells (Table 1)."}, "K. pneumoniae NCTC418": {"system": "K. pneumoniae NCTC418", "details": "NCTC418, 4 h", "procedure,_shortened": "(§2)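 MTT added (20–30 min, room temperature); MIC read by eye as lowest concentration inhibiting visible growth (yellow). Polymyxin B positive control from 16 μg/mL.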"}, "K. pneumoniae OXA-48": {"system": "K. pneumoniae OXA-48", "procedure,_shortened": "as §1"}, "E. cloacae": {"system": "E. cloacae", "procedure,_shortened": "as §1"}, "PA14 4.18 (pmrB)": {"system": "PA14 4.18 (pmrB)", "procedure,_shortened": "as §1"}, "PA14 2P4 (pmrB)": {"system": "PA14 2P4 (pmrB)", "procedure,_shortened": "as §1"}, "P. aeruginosa PAO1": {"system": "P. aeruginosa PAO1", "details": "PAO1, 4 h", "procedure,_shortened": "as §1"}, "[2]": {"system": "ZEM9A (clinical MDR P. aeruginosa isolate)", "procedure,_shortened": "as §1"}, "[3]": {"system": "ZEM-1A (clinical MDR P. aeruginosa isolate)", "details": "CSV", "procedure,_shortened": "as §1"}, "PA14 4.13 (phoQ)": {"system": "PA14 4.13 (phoQ)", "procedure,_shortened": "as §1"}, "S. aureus COL (MRSA)": {"system": "S. aureus COL (MRSA)", "details": "COL, 4 h", "procedure,_shortened": "as §1"}, "A. baumannii ATCC19606": {"system": "A. baumannii ATCC19606", "details": "ATCC19606, 4 h", "procedure,_shortened": "as §2"}, "E. coli W3110": {"system": "E. coli W3110", "procedure,_shortened": "as §1"}}, "note": "Where two headings read alike, the source gives them in different places. Where a SMILES comes first, the peptide text is derived from it. [ ]: non-standard residue; d: D form. Nleu = CC(C)CNCC(=O)O; Nlys = NCCCCNCC(=O)O"}
{"smiles": "CC(C)C[C@H](NC(=O)[C@H](CC(C)C)NC(=O)[C@H](CC(C)C)NC(=O)[C@H](CCCCN)NC(=O)[C@H](CC(C)C)NC(=O)[C@H](CC(C)C)NC(=O)CN(CCCCN)C(=O)CN(CC(C)C)C(=O)CN(CC(C)C)C(=O)CN(CCCCN)C(=O)CNCCCCN)C(N)=O", "note": "[EB5, kkllkLLKLLL] (H-[Nlys][Nlys][Nleu][Nleu][Nlys]LLKLLL-NH2)", "values": [{"measurement": "MIC B. cenocepacia, full MH at pH 7.4", "setting": "B. cenocepacia; 4 h", "value": ">32", "unit": "ug/mL"}, {"measurement": "MIC B. cenocepacia", "setting": "B. cenocepacia", "value": ">32", "unit": "µg/mL"}, {"measurement": "MIC S. aureus Newman, full MH at pH 7.4", "setting": "S. aureus Newman; 4 h, pH 7.4", "value": ">32", "unit": "ug/mL"}, {"measurement": "MIC S. aureus Newman", "setting": "S. aureus Newman; 4 h, pH 8.5", "value": 2, "unit": "µg/mL"}, {"measurement": "MIC S. aureus Newman", "setting": "S. aureus Newman; pH 7.4", "value": ">32", "unit": "µg/mL"}, {"measurement": "MIC P. aeruginosa PA14, full MH at pH 7.4", "setting": "P. aeruginosa PA14; PA14, 4 h, pH 7.4", "value": 6, "unit": "ug/mL"}, {"measurement": "MIC P. aeruginosa PA14", "setting": "P. aeruginosa PA14; PA14, pH 7.4", "value": "4 to 8", "unit": "µg/mL"}, {"measurement": "MIC P. aeruginosa PA14", "setting": "P. aeruginosa PA14; PA14, pH 8.5", "value": 2, "unit": "µg/mL"}, {"measurement": "MIC S. epidermis, full MH at pH 7.4", "setting": "S. epidermis; 4 h, pH 7.4", "value": 6, "unit": "ug/mL"}, {"measurement": "MIC S. epidermis", "setting": "S. epidermis; 4 h, pH 8.5", "value": 2, "unit": "µg/mL"}, {"measurement": "MIC S. epidermis", "setting": "S. epidermis; pH 7.4", "value": "4 to 8", "unit": "µg/mL"}, {"measurement": "MIC S. maltophilia, full MH at pH 7.4", "setting": "S. maltophilia; 4 h, pH 7.4", "value": 8, "unit": "ug/mL"}, {"measurement": "MIC S. maltophilia", "setting": "S. maltophilia; 4 h, pH 8.5", "value": "4 to 8", "unit": "µg/mL"}, {"measurement": "MIC S. maltophilia", "setting": "S. maltophilia; pH 7.4", "value": 8, "unit": "µg/mL"}, {"measurement": "MHC", "setting": "[1]", "value": 1000, "unit": "µg/mL"}, {"measurement": "MHC (hemolysis)", "setting": "[1]; red cells of human", "value": "250 to 1000", "unit": "µg/mL"}, {"measurement": "MIC K. pneumoniae NCTC418, full MH at pH 7.4", "setting": "K. pneumoniae NCTC418; pH 7.4", "value": ">32", "unit": "ug/mL"}, {"measurement": "MIC K. pneumoniae NCTC418, full MH at pH 8.5", "setting": "K. pneumoniae NCTC418; pH 8.5", "value": 24, "unit": "ug/mL"}, {"measurement": "MIC K. pneumoniae NCTC418 Full MH 8.5", "setting": "K. pneumoniae NCTC418; pH 8.5", "value": "16 to 32", "unit": "µg/mL"}, {"measurement": "MIC K. pneumoniae OXA-48, […] MH at pH 8.5", "setting": "K. pneumoniae OXA-48; CSV, […] MH at pH 8.5", "value": 8, "unit": "ug/mL"}, {"measurement": "MIC K. pneumoniae OXA-48, full MH at pH 7.4", "setting": "K. pneumoniae OXA-48; CSV, full MH at pH 7.4", "value": ">32", "unit": "ug/mL"}, {"measurement": "MIC K. pneumoniae OXA-48", "setting": "K. pneumoniae OXA-48; MH pH 7.4, 16–20 h at 37 °C", "value": "32 to 64", "unit": "µg/mL"}, {"measurement": "MIC K. pneumoniae OXA-48", "setting": "K. pneumoniae OXA-48; Table S3, […] MH at pH 8.5", "value": 8, "unit": "µg/mL"}, {"measurement": "MIC E. cloacae, full MH at pH 7.4", "setting": "E. cloacae; 4 h, pH 7.4", "value": 12, "unit": "ug/mL"}, {"measurement": "MIC E. cloacae", "setting": "E. cloacae; 4 h, pH 8.5", "value": 4, "unit": "µg/mL"}, {"measurement": "MIC E. cloacae", "setting": "E. cloacae; pH 7.4", "value": "8 to 16", "unit": "µg/mL"}, {"measurement": "MIC P. aeruginosa PA14 4.18, […] MH at pH 8.5", "setting": "PA14 4.18 (pmrB); CSV, […] MH at pH 8.5", "value": 2, "unit": "ug/mL"}, {"measurement": "MIC P. aeruginosa PA14 4.18, full MH at pH 7.4", "setting": "PA14 4.18 (pmrB); CSV, full MH at pH 7.4", "value": 32, "unit": "ug/mL"}, {"measurement": "MIC PA14 4.18 (pmrB)", "setting": "PA14 4.18 (pmrB); MH pH 7.4, 16–20 h at 37 °C", "value": 32, "unit": "µg/mL"}, {"measurement": "MIC P. aeruginosa PA14 4.18", "setting": "PA14 4.18 (pmrB); Table S3, […] MH at pH 8.5", "value": 2, "unit": "µg/mL"}, {"measurement": "MIC P. aeruginosa PA14 2P4, […] MH at pH 8.5", "setting": "PA14 2P4 (pmrB); CSV, […] MH at pH 8.5", "value": 2, "unit": "ug/mL"}, {"measurement": "MIC P. aeruginosa PA14 2P4, full MH at pH 7.4", "setting": "PA14 2P4 (pmrB); CSV, full MH at pH 7.4", "value": ">32", "unit": "ug/mL"}, {"measurement": "MIC PA14 2P4 (pmrB)", "setting": "PA14 2P4 (pmrB); MH pH 7.4, 16–20 h at 37 °C", "value": ">32", "unit": "µg/mL"}, {"measurement": "MIC P. aeruginosa PA14 2P4", "setting": "PA14 2P4 (pmrB); Table S3, […] MH at pH 8.5", "value": 2, "unit": "µg/mL"}, {"measurement": "MIC P. aeruginosa PAO1, full MH at pH 7.4", "setting": "P. aeruginosa PAO1; pH 7.4", "value": 4, "unit": "ug/mL"}, {"measurement": "MIC P. aeruginosa PAO1, full MH at pH 8.5", "setting": "P. aeruginosa PAO1; pH 8.5", "value": ">32", "unit": "ug/mL"}, {"measurement": "MIC P. aeruginosa ZEM9A, […] MH at pH 8.5", "setting": "[2]; CSV, […] MH at pH 8.5", "value": 2, "unit": "ug/mL"}, {"measurement": "MIC P. aeruginosa ZEM9A, full MH at pH 7.4", "setting": "[2]; CSV, full MH at pH 7.4", "value": 8, "unit": "ug/mL"}, {"measurement": "MIC ZEM9A", "setting": "[2]; MH pH 7.4, 16–20 h at 37 °C", "value": 8, "unit": "µg/mL"}, {"measurement": "MIC P. aeruginosa ZEM9A", "setting": "[2]; Table S3, […] MH at pH 8.5", "value": 2, "unit": "µg/mL"}, {"measurement": "MIC P. aeruginosa ZEM-1A, […] MH at pH 8.5", "setting": "[3]; […] MH at pH 8.5", "value": 2, "unit": "ug/mL"}, {"measurement": "MIC P. aeruginosa ZEM-1A, full MH at pH 7.4", "setting": "[3]; full MH at pH 7.4", "value": 2, "unit": "ug/mL"}, {"measurement": "MIC P. aeruginosa PA14 4.13, […] MH at pH 8.5", "setting": "PA14 4.13 (phoQ); CSV, […] MH at pH 8.5", "value": 2, "unit": "ug/mL"}, {"measurement": "MIC P. aeruginosa PA14 4.13, full MH at pH 7.4", "setting": "PA14 4.13 (phoQ); CSV, full MH at pH 7.4", "value": 8, "unit": "ug/mL"}, {"measurement": "MIC PA14 4.13 (phoQ)", "setting": "PA14 4.13 (phoQ); MH pH 7.4, 16–20 h at 37 °C", "value": 8, "unit": "µg/mL"}, {"measurement": "MIC P. aeruginosa PA14 4.13", "setting": "PA14 4.13 (phoQ); Table S3, […] MH at pH 8.5", "value": 2, "unit": "µg/mL"}, {"measurement": "MIC S. aureus COL (MRSA), full MH at pH 7.4", "setting": "S. aureus COL (MRSA); pH 7.4", "value": 8, "unit": "ug/mL"}, {"measurement": "MIC S. aureus COL (MRSA), full MH at pH 8.5", "setting": "S. aureus COL (MRSA); pH 8.5", "value": ">32", "unit": "ug/mL"}, {"measurement": "MIC A. baumannii ATCC19606, full MH at pH 7.4", "setting": "A. baumannii ATCC19606; pH 7.4", "value": 2, "unit": "ug/mL"}, {"measurement": "MIC A. baumannii ATCC19606, full MH at pH 8.5", "setting": "A. baumannii ATCC19606; pH 8.5", "value": ">32", "unit": "ug/mL"}, {"measurement": "MIC E. coli W3110, […] MH at pH 7.4", "setting": "E. coli W3110; CSV, […] MH at pH 7.4", "value": 2, "unit": "ug/mL"}, {"measurement": "MIC E. coli W3110, […] MH at pH 8.5", "setting": "E. coli W3110; CSV, […] MH at pH 8.5", "value": 2, "unit": "ug/mL"}, {"measurement": "MIC E. coli W3110, full MH at pH 7.4", "setting": "E. coli W3110; CSV, full MH at pH 7.4", "value": 2, "unit": "ug/mL"}, {"measurement": "MIC E. coli W3110, full MH at pH 8.5", "setting": "E. coli W3110; CSV, full MH at pH 8.5", "value": ">32", "unit": "ug/mL"}, {"measurement": "MIC E. coli W3110 […]", "setting": "E. coli W3110; diluted MH ([…] MH, pH 8.5) per Table 1 footnote b, 16–20 h at 37 °C", "value": 2, "unit": "µg/mL"}]}
